Source: ChEMBL document CHEMBL1156365, “Polyacetylene carboxylic acids from Mitrephora celebica” (2001)
In brackets after ≈: the same amount, converted by molar mass.

What was measured:
Staphylococcus aureus = experiment: Antibacterial activity against methicillin-resistant Staphylococcus aureus by NCCLS M7-A4 method; type: functional
[1] = test system: Mycolicibacterium smegmatis; experiment: Antibacterial activity against Mycobacterium smegmatis; type: functional

| Compound | MIC (Staphylococcus aureus) | MIC [1] |
| --- | --- | --- |
| C=CCC/C=C/C#CC#CCCCCCCCC(=O)O | 25 µg/mL (≈ 91.8 µM) | 12.5 µg/mL (≈ 45.9 µM) |
| NNC(=O)c1ccncc1 [ISONIAZID] | – | 0.8 µg/mL (≈ 5.83 µM) |
| C=CCCC#CC#CC#CCCCCCCCC(=O)O [OROPHEIC ACID] | 12.5 µg/mL (≈ 46.2 µM) | 12.5 µg/mL (≈ 46.2 µM) |
| CN[C@H](CC(C)C)C(=O)N[C@H]1C(=O)N[C@@H](CC(N)=O)C(=O)N[C@H]2C(=O)N[C@H]3C(=O)N[C@H](C(=O)N[C@H](C(=O)O)c4cc(O)cc(O)c4-c4cc3ccc4O)[C@H](O)c3ccc(c(Cl)c3)Oc3cc2cc(c3O[C@@H]2O[C@H](CO)[C@@H](O)[C@H](O)[C@H]2O[C@H]2C[C@](C)(N)[C@H](O)[C@H](C)O2)Oc2ccc(cc2Cl)[C@H]1O [VANCOMYCIN] | 0.8 µg/mL (≈ 0.552 µM) | – |
